In patent US9573970B2, “4-{4-[(1E)-4-(2,9-diazaspiro[5.5]undec-2-yl)but-1-en-1-yl]-2-methylbenzyl}-5-(propan-2-yl)-1H-pyrazol-3-yl beta-D glucopyranoside acetate” (Eli Lilly and Company, priority 2013, dated 2017):

What was measured:
human SGLT1 = target: T1, human SGLT1 (Homo sapiens, UniProt P13866); assay: Sodium-dependent 14C-AMG uptake in CHO-K1 cells expressing human SGLT1; type: cell-based
T1 sequence (P13866 1-664): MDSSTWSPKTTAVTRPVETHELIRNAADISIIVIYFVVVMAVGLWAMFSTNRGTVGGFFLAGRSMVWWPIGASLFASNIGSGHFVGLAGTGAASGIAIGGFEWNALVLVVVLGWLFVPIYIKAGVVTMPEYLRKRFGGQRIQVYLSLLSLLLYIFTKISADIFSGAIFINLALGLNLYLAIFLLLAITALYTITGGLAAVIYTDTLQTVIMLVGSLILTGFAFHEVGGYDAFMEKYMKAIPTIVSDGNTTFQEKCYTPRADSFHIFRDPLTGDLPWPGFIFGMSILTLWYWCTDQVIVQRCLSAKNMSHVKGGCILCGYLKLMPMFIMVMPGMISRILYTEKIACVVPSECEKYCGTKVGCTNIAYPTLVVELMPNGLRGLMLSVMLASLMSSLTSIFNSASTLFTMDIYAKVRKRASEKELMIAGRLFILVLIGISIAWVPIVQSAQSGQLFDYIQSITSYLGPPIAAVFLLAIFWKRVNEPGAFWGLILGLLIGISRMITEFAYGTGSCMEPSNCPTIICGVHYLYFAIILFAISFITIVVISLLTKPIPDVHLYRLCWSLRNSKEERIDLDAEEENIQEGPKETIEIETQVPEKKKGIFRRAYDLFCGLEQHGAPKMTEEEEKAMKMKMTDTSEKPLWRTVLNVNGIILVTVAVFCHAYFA
Description: The cDNA encoding human SGLT1 (slc5a1, NM_000343), human SGLT2 (slc5a2, NM_003041) and mouse SGLT1 (slc5a1, NM_019810.4) are purchased from Openbiosystems, Invitrogen and Openbiosystems, respectively. The cDNA is cloned into pcDNA3.1+ for mammalian expression and is stably transfected into Chinese hamster ovary (CHO)-K1 cells using standard mammalian transfection procedures. An SGLT-expressing sub-clone of each over-expressing cell line is selected based on resistance to neomycin (Geneticin, Invitrogen) and activity in the ^14C-α-methyl-D-glucopyranoside (^14C-AMG) uptake assay (see below). Stable SGLT-expressing cells are maintained using standard cell culture techniques.
The SGLT activity is measured as sodium-dependent ^14C-AMG uptake in the above cell lines described as follows. One hundred μL of culture medium containing 30,000 cells are seeded to each well of a 96-well BioCoat poly-D-lysine plate (Becton Dickson) and cultured at 37° C. overnight. The culture medium is aspirated and cells are washed twice with 200 μL of Reaction Buffer (140 mM NaCl, 2 mM KCl, 1 mM CaCl2, MgCl2, and 14 mM N-2-hydroethylpiperrazine-N′-2-ethanesulfonic acid (Hepes), pH 7.5). The excess buffer is tapped out onto paper towels. Thirty-five μL of Reaction Buffer are added to each well. […] After mixing, the scintillation signal in the plate is counted in a MicroBeta (PerkinElmer). […]

[1] = test system: male rats with STZ-induced diabetes; assay: Mixed meal tolerance test (MTT) in male rats with streptozotocin induced diabetes; type: in vivo, rat; settings: for Glucose value, 0 min.: 30 min after compound, before meal; for Glucose value, 0 min. / Baseline Adjusted AUC (glucose) / Glucose value, 20 min. / Glucose value, 40 min. / Glucose value, 60 min. / Glucose value, 120 min.: mean ± SE; for Baseline Adjusted AUC (glucose): MTT
Procedure: The test compound is formulated by adding a vehicle of 1% hydroxyethylcellulose (HEC), 0.25% Tween® 80 w/antifoam 0.05% to preweighed test compound to make a 2.5 mg/ml solution. The mixture is probe sonicated for approximately 30 seconds. The resulting solution is used as a stock solution, from which the lower concentration dose solutions are prepared by dilution with the vehicle. STZ, 45 mg/kg, is formulated by dissolving in 0.1M Citrate buffer in 3 ml aliquots and stored in the dark on ice, when not being administered. A high fat content mixed meal (Bio-Serv® Rodent Diet F3282 High Fat) comprising Fat Calories (60%), Carbohydrate Calories (26%) and Protein Calories (15%) is utilized. Single housed Sprague Dawley rats are allowed to acclimate for a period of 3 to 7 days.
In an effort to ensure that the animals have not recently fed, STZ is administered in the afternoon, approximately six hours into the light cycle (lights on 6 am, lights off 6 pm). The animals are anesthetized with isoflurane and STZ is delivered via tail vein injection. Once animals regain consciousness, they are returned to housing and allowed to recover for 7 days.
On the two days immediately prior to the meal tolerance test (MTT) all rats are given a small amount (2-4 g) of the F3282 diet, so they became acclimated to it prior to receiving it during the experiment. On the evening before the experiment, the rats are moved into clean cages and their food is removed. The following morning animals are weighed and a blood sample is taken by tail snip for glucose measurement (Abbott AlphaTRAK™ glucometers: code 29) Animals are grouped n=6 based on fasted body weight and glucose. Thirty minutes after the test compound is orally administered, two glucose measurements are collected. Then a five gram pellet of Bio-Serv® diet 3282 is given. After 20 minutes remaining food is taken away and weighed. Blood samples are taken at 20, 40, 60 and 120 minutes for glucose measurement.

[2] = in words, Example 1 free base 10 and 30 mg/kg, Acarbose 60 mg/kg

- IC50 (human SGLT1; 14C-AMG uptake, CHO-K1 cells, n = 10): 26 ± 20 nM
Compound: Cc1cc(/C=C/CCN2CCCC3(CCNCC3)C2)ccc1Cc1c(O[C@@H]2O[C@H](CO)[C@@H](O)[C@H](O)[C@H]2O)n[nH]c1C(C)C [Example 1 (free base), 4-{4-[(1E)-4-(2,9-diazaspiro[5.5]undec-2-yl)but-1-en-1-yl]-2-methylbenzyl}-5-(propan-2-yl)-1H-pyrazol-3-yl beta-D-glucopyranoside]
- Potency at SGLT1 relative to human SGLT2 (human SGLT1; in vitro, from Table 2): more potent at human and mouse SGLT1 than at human SGLT2
- Glucose value, 0 min. ([1]; 10 mg/kg oral): 139 ± 16.1 mg/dL
- Baseline Adjusted AUC (glucose) ([1]; 10 mg/kg oral): 22432 ± 2234
- Glucose value, 20 min. ([1]; 10 mg/kg oral): 221.2 ± 26.3 mg/dL
- Glucose value, 40 min. ([1]; 10 mg/kg oral): 268.7 ± 29 mg/dL
- Glucose value, 60 min. ([1]; 10 mg/kg oral): 330 ± 36.7 mg/dL
- Glucose value, 120 min. ([1]; 10 mg/kg oral): 490.8 ± 39.2 mg/dL
- Glucose value, 0 min. ([1]; 30 mg/kg oral): 137.4 ± 26.9 mg/dL
- Baseline Adjusted AUC (glucose) ([1]; 30 mg/kg oral): 14649 ± 3673
- Glucose value, 20 min. ([1]; 30 mg/kg oral): 195.4 ± 44.8 mg/dL
- Glucose value, 40 min. ([1]; 30 mg/kg oral): 232 ± 52.2 mg/dL
- Glucose value, 60 min. ([1]; 30 mg/kg oral): 263.9 ± 62.2 mg/dL
- Glucose value, 120 min. ([1]; 30 mg/kg oral): 355.3 ± 73.2 mg/dL
- Glucose baseline adjusted AUCs in the MTT [1, 2]: dose dependent decrease in glucose baseline adjusted AUCs
- Glucose in the MTT compared to the vehicle controls [1, 2]: significantly and dose dependently decreases glucose
